According to patent US12421276B2 (priority 2016, dated 2025):
Several values for one entry are separate records, joined by “and”; a condition that tells them apart may be missing. Equal entries are not always repeated. Where two headings read alike, the source gives them in different places. Where a SMILES comes first, the peptide text is derived from it. [ ]: non-standard residue; d: D form. The star is where a group is joined. Hexanoyl = CCCCCC(=O)*; Ahx = NCCCCCC(=O)O

Legend:
[1] = Metabolic stability in simulated intestinal fluid (SIF), pH 6.8, with or without pancreatin; format: in vitro ADME
Procedure: (§1) Metabolic Stability in SIF and SGF (Simulated Intestinal and Gastric Fluid)
Buffer 3=SIF without enzyme
Buffer 4=SIF with 1% pancreatin
(§2) SIF was prepared freshly with 8.7 mM NaOH, 28.65 mM NaH2PO4, 105.85 mM NaCl, with a final pH of 6.8. SGF was prepared freshly with 34.2 mM NaCl, with a final pH of 1.2. Enzymes such as pepsin or pancreatin were added to some buffers. Human and rat plasma (K2 EDTA) were purchased from BioreclamationIVT.
(§3) Compounds were dissolved as 1.5 mM DMSO stocks. Compounds were transferred to SIF, SGF, or plasma at 5 μM on a 96-well deep well plate. After mixing, samples were transferred to several 96-well plates (25 μL/well), and incubated at 37° C. The extent of metabolism was calculated as the disappearance of the test compound, compared to the 0-min control reaction incubations. Candesartan Cilexetil and omeprazole were included as positive controls for SIF and SGF, respectively, to verify assay performance.
(§4) At each of the time points, 150 μL of quench solution (100% acetonitrile with 0.1% formic acid) with internal standard (bucetin for positive ESI mode and warfarin for negative ESI mode) was transferred to each well. Plates were sealed and centrifuged at 4° C. for 15 minutes at 4000 rpm. The supernatant was transferred to fresh plates for LC/MS/MS analysis.
(§5) Elution conditions are detailed in the table below.
(§6) Initial rates of the clearance of test compounds were calculated using linear regression of semi-log plot of % remaining of compounds versus time. The elimination rate constant (equals to −slope) of the linear regression was then used to determine t½ values.

[2] = Plasma stability study, human plasma; format: in vitro ADME
Procedure: (§7) Human and rat plasma (K2 EDTA) were obtained from Bioreclamation.
(§8) Compounds were dissolved as 0.3 mM DMSO stocks. Compounds were transferred to the plasma at 1 μM on a 96-well deep well plate. After mixing, samples were transferred to several 96-well plates (25 μL/well), and incubated at 37° C. The extent of metabolism was calculated as the disappearance of the test compound, compared to the 0-min control reaction incubations. Propantheline was included as a positive control to verify assay performance.
(§9) At each of the time points, 150 μL of quench solution (50% acetonitrile, 50% methanol with 0.05% formic acid) with internal standard (bucetin for positive ESI mode and warfarin for negative ESI mode) was transferred to each well. Plates were sealed and centrifuged at 4° C. for 15 minutes at 4000 rpm. The supernatant was transferred to fresh plates for LC/MS/MS analysis.
as §5, §6

[3] = Metabolic stability in simulated gastric fluid (SGF), pH 1.2, with or without pepsin; format: in vitro ADME
Procedure: as §1
Buffer 1=SGF without enzyme
Buffer 2=SGF with 0.32% pepsin
as §2, §3, §4, §5, §6

[4] = format: in vivo, rat
Procedure: • 1. Eight (8) male JVC SD rats (purchased from Charles River Lab) were monitored daily for body condition and health status during the 3-5 days acclimation period. The rats were randomly assigned into […] (n=4). • 2. […] The dosed rats were individually placed into a metabolic cage, and have access to food and water at all times. The urine from each rat was collected daily from the metabolic cages, and kept in dry ice. • 4. At predose (0 min), 5 min, 15 min, 30 min, 1 hr, 2 hr, 8 hr, and 24 hr post dosing, approximately 200 ul blood samples were collected from each rat and transferred to EDTA tubes. • 5. The blood samples in EDTA vials were centrifuged at 4° C. and 6,000 rpm for 10 minutes to generate ˜100 μl of plasma per sample. Blood samples were processed as quickly as possible and remain no longer than 2 min at room temperature and no longer than 15 minutes at 4° C. prior to processing. • 6. All samples were transferred for bioanalytic assay using LCMS

[5] = Plasma stability study, rat plasma; format: in vitro ADME
Procedure: as §7, §8, §9, §5, §6

Caco-2 cells = assay: Caco-2 permeability study with or without P-gp inhibitor GF120918; settings: for Abs. Quotient: (Papp A-B with inhibitor − without inhibitor)/Papp A-B with inhibitor; for Caco-2 Cells Permeability Recovery Rate: 1 hr, pH 7.4
Procedure: Buffer=HBSS, pH 7.4 with 5 mM HEPES
Caco-2 cell plates were obtained commercially and were maintained for 21 days at 37° C. with 5% CO2. Cells were washed with Hank's Balanced Salt Solution (HBSS) 30 min before starting the experiment. Test compound solutions were prepared by diluting from DMSO stock into HBSS buffer in the presence or absence of 10 μM of P-gp inhibitor GF120918. The final DMSO concentration is 0.2%. Prior to each experiment, cell monolayer integrity was verified by transendothelial electrical resistance (TEER). Transport experiment was initiated by adding test compounds to the apical (75 μL) side. Transport plates were incubated at 37° C. in a humidified incubator with 5% CO2. Samples were taken from the donor and acceptor compartments after 1 hr and analyzed by liquid chromatography with tandem mass spectrometry (LC/MS/MS).
Apparent permeability (Papp) values were calculated using the following equation: Papp=(dQ/dt)/A/C0
where dQ/dt is the initial rate of amount of test compound transported across cell monolayer, A is the surface area of the filter membrane, and C0 is the initial concentration of the test compound. C0 is calculated for each condition using a 4-point calibration curve.
Absorption quotient between the two assay conditions was calculated by the following equation:
Absorption quotient (AQ)=(Papp, A-B with inhibitor−Papp, A-B without inhibitor)/Papp, A-B with inhibitor where Papp, A-B with inhibitor and Papp, A-B without inhibitor represent the apparent permeability of test compound from the apical to basal side of the cellular monolayer in the presence and absence of 10 μM P-gp inhibitor GF120918, respectively.
All samples were analyzed on LC/MS/MS using an AB Sciex API 4000 instrument, coupled to a Shimadzu LC-20AD LC Pump system. Analytical samples were separated using a Waters Atlantis T3 dC18 reverse phase HPLC column (10 mm×2.1 mm) at a flow rate of 0.5 mL/min. The mobile phase consisted of 0.1% formic acid in water (solvent A) and 0.1% formic acid in acetonitrile (solvent B).

[6] = Rat, PO, 10 mg/kg equiv., n = 4, analyte: Parent (BASE STRUCTURE)
[7] = rat, dosed as Base Structure 20 mg/kg, analyte Parent (Base Structure), Average
[8] = rat, dosed as Base Structure 20 mg/kg, analyte Parent (Base Structure), Combined (average ± std. dev.)
[9] = rat, dosed as Base Structure 20 mg/kg, analyte Parent (Base Structure), individual animals
[10] = +GF120918 (10 μM), 10 μM compound

## CCCCCC(=O)N[C@@H](Cc1ccc(O)cc1)C(=O)N[C@H](C(=O)NCCCCCC(N)=O)[C@@H](C)CC [Base Structure, N-hexanoic-L-tyrosine-L-isoleucine-(6)-aminohexanoic amide, reference compound] (Hexanoyl-Tyr-Ile-[Ahx]-NH2)
[1]; −Pancreatin, 5 μM, 37° C.
  SIF Stability (pH 6.8) Half-Life (min): Neg.
[1]; −Pancreatin, 5 μM, 37° C., 0 min
  SIF Stability (pH 6.8) 0 min: 100%
[1]; −Pancreatin, 5 μM, 37° C., 60 min
  SIF Stability (pH 6.8) 60 min: 119%
[1]; −Pancreatin, 5 μM, 37° C., 240 min
  SIF Stability (pH 6.8) 240 min: 113%
[2]; Human plasma, 1 μM, 37° C.
  Plasma Stability Half-Life: 12558.0 min
[2]; Human plasma, 1 μM, 37° C., 0 min
  Plasma Stability (% Parent Remaining) 0 min: 100%
[2]; Human plasma, 1 μM, 37° C., 60 min
  Plasma Stability (% Parent Remaining) 60 min: 98%
[2]; Human plasma, 1 μM, 37° C., 120 min
  Plasma Stability (% Parent Remaining) 120 min: 102%
[2]; Human plasma, 1 μM, 37° C., 240 min
  Plasma Stability (% Parent Remaining) 240 min: 98%
[3]; +Pepsin (0.32%), 5 μM, 37° C.
  SGF Stability (pH 1.2) Half-Life (min): 26.0 min
  SGF Stability (pH 1.2) 0 min: 100%
  SGF Stability (pH 1.2) 60 min: 13%
  SGF Stability (pH 1.2) 240 min: 0.2%
[3]; −Pepsin, 5 μM, 37° C.
  SGF Stability (pH 1.2) Half-Life (min): Neg.
  SGF Stability (pH 1.2) 0 min: 100%
  SGF Stability (pH 1.2) 60 min: 127%
  SGF Stability (pH 1.2) 240 min: 122%
[4]; [6]
  AUC0-24: 0.4 ± 0.2 ng·h/mL
  Cmax: 0.9 ± 0.5 ng/mL
  Tmax: 24 ± 30 min
[4]; [7]
  AUC 0-t: 0.4468 ng·h/mL
  Cmax: 0.9267 ng/mL
  Tlag: 0 h
  Tmax: 26.6 min
[4]; [8]
  AUC 0-t: 0.4 ± 0.2 ng·h/mL
  Cmax: 0.9 ± 0.5 ng/mL
  Tlag: 0 ± 0 h
  Tmax: 24 ± 30 min
[4]; [9]
  AUC 0-t: 0.6164 ng·h/mL and 0.5175 ng·h/mL and 0.2066 ng·h/mL
  Cmax: 0.689 ng/mL and 1.54 ng/mL and 0.551 ng/mL
  Tlag: 0 h
  Tmax: 4.8 min and 15 min and 60 min
[5]; Rat plasma, 1 μM, 37° C.
  Plasma Stability Half-Life: 1095.1 min
[5]; Rat plasma, 1 μM, 37° C., 0 min
  Plasma Stability (% Parent Remaining) 0 min: 100%
[5]; Rat plasma, 1 μM, 37° C., 60 min
  Plasma Stability (% Parent Remaining) 60 min: 87%
[5]; Rat plasma, 1 μM, 37° C., 120 min
  Plasma Stability (% Parent Remaining) 120 min: 89%
[5]; Rat plasma, 1 μM, 37° C., 240 min
  Plasma Stability (% Parent Remaining) 240 min: 83%
Caco-2 cells
  Abs. Quotient: 0.84 and 0.82
Caco-2 cells; [10]
  Caco-2 Cells Permeability Recovery Rate: 83% and 96%
Caco-2 cells; −GF120918, 10 μM compound
  Caco-2 Cells Permeability Recovery Rate: 87% and 91%

## CCCCCC(=O)NC(Cc1ccc(OC(=O)CN2CCN(C)CC2)cc1)C(=O)NC(C(=O)NCCCCCC(N)=O)C(C)CC (stereo not shown) [Compound A22]
[2]; human, plasma
  Plasma Stability Half-Life: 87.9 min
[5]; rat, plasma
  Plasma Stability Half-Life: 8.7 min
Caco-2 cells
  Abs. Quotient: 0.78
Caco-2 cells; [10]
  Caco-2 Cells Permeability Recovery Rate: 104%
Caco-2 cells; −GF120918, 10 μM compound
  Caco-2 Cells Permeability Recovery Rate: 107%

## CCCCCC(=O)NC(Cc1ccc(OC(=O)CN2CCOCC2)cc1)C(=O)NC(C(=O)NCCCCCC(N)=O)C(C)CC (stereo not shown) [Compound A23]
[2]; human, plasma
  Plasma Stability Half-Life: 31.3 min
[5]; rat, plasma
  Plasma Stability Half-Life: 8.2 min
Caco-2 cells
  Abs. Quotient: 0.78
Caco-2 cells; [10]
  Caco-2 Cells Permeability Recovery Rate: 96%
Caco-2 cells; −GF120918, 10 μM compound
  Caco-2 Cells Permeability Recovery Rate: 91%

## CCCCCC(=O)NC(Cc1ccc(OC(=O)CN2CCCC2)cc1)C(=O)NC(C(=O)NCCCCCC(N)=O)C(C)CC (stereo not shown) [Compound A24]
[2]; human, plasma
  Plasma Stability Half-Life: 7.3 min
[5]; rat, plasma
  Plasma Stability Half-Life: 64.2 min
Caco-2 cells
  Abs. Quotient: 0.88
Caco-2 cells; [10]
  Caco-2 Cells Permeability Recovery Rate: 72%
Caco-2 cells; −GF120918, 10 μM compound
  Caco-2 Cells Permeability Recovery Rate: 72%

## CCCCCC(=O)NC(Cc1ccc(OC(=O)CN(C)C)cc1)C(=O)NC(C(=O)NCCCCCC(N)=O)C(C)CC (stereo not shown) [Compound A25]
[1]; simulated gi fluid, pH 6.8
  SIF Stability (pH 6.8) Half-Life (min): 34.7 min
[2]; human, plasma
  Plasma Stability Half-Life: 10.1 min
[3]; simulated gi fluid, pH 1.2
  SGF Stability (pH 1.2) Half-Life (min): 389.4 min
[5]; rat, plasma
  Plasma Stability Half-Life: 8.2 min
Caco-2 cells
  Abs. Quotient: 0.77
Caco-2 cells; [10]
  Caco-2 Cells Permeability Recovery Rate: 83%
Caco-2 cells; −GF120918, 10 μM compound
  Caco-2 Cells Permeability Recovery Rate: 91%

## CCCCCC(=O)NC(Cc1ccc(OC(=O)C(N)C(C)C)cc1)C(=O)NC(C(=O)NCCCCCC(N)=O)C(C)CC (stereo not shown) [Compound A27] (Hexanoyl-Tyr(Val)-Ile-[Ahx]-NH2; configuration not given here)
[2]; human, plasma
  Plasma Stability Half-Life: 13.2 min
[5]; rat, plasma
  Plasma Stability Half-Life: 31.9 min
Caco-2 cells
  Abs. Quotient: 0.70
Caco-2 cells; [10]
  Caco-2 Cells Permeability Recovery Rate: 94%
Caco-2 cells; −GF120918, 10 μM compound
  Caco-2 Cells Permeability Recovery Rate: 90%
